Literature values as cited in article PMC10783161 (RSC Advances, 2024).

Conditions: biphasic elimination, slower terminal phase

- terminal phase half-life: 4 to 11 h
SMILES: COc1cc([C@@H]2c3cc4c(cc3[C@@H](O[C@@H]3O[C@@H]5CO[C@@H](C)O[C@H]5[C@H](O)[C@H]3O)[C@H]3COC(=O)[C@H]23)OCO4)cc(OC)c1O [ETP, etoposide]
